Like-named read-outs stand apart in the source and are kept apart here. One block for each molecule: values may come before it.
Key:
[1] = molecular target: T1, complex II (succinate:ubiquinone oxidoreductase, succinate dehydrogenase) in bovine heart submitochondrial particles (Bos taurus, UniProt P31039+P35720+Q3T189+Q95123); assay: coupled FumC-MaeB assay of succinate oxidation in SMPs, NADPH absorbance; format: biochemical; conditions: 5 mM succinate, pH 7.4, 32 °C, 2 mM NADP+, 2 mM MgSO4
T1 construct: gene SDHA; native four-subunit complex in submitochondrial particles from bovine heart mitochondria, not isolated; dicarboxylate site in SDHA, ubiquinone site at SDHB/SDHC/SDHD
T1 sequence (P31039 44-665): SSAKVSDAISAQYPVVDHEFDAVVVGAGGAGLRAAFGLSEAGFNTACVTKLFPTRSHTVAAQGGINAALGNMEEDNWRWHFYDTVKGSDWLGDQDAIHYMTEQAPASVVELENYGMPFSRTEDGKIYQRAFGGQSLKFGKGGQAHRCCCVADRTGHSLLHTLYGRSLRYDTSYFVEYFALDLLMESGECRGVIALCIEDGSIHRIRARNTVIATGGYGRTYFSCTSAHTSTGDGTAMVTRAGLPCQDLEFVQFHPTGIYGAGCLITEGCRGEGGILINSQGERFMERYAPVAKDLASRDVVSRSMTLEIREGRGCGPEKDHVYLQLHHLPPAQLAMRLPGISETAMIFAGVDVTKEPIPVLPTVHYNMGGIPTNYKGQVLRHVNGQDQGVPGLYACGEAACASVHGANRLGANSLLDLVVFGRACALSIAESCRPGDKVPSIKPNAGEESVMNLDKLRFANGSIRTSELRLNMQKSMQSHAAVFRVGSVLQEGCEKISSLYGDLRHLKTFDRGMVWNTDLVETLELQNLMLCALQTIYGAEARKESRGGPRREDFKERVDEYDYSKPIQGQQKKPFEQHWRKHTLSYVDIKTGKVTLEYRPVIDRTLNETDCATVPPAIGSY
T1 sequence (Q3T189 29-280): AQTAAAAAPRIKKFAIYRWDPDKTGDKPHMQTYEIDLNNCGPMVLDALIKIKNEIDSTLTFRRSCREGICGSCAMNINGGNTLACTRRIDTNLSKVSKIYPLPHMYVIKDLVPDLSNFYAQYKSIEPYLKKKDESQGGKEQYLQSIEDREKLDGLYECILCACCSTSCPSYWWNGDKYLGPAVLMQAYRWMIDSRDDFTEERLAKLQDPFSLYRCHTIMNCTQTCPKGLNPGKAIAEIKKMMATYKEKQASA
T1 sequence (P35720 30-169): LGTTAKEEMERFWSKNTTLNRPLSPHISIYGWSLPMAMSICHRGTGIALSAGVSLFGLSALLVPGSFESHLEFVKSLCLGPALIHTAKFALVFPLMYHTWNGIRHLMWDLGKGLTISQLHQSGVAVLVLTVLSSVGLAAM
T1 sequence (Q95123 56-158): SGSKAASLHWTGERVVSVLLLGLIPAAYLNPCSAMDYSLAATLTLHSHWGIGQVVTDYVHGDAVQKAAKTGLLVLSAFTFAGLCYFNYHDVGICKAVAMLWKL
Excerpt: coupled FumC-MaeB assay of succinate oxidation in SMPs, NADPH absorbance on complex II (succinate:ubiquinone oxidoreductase, succinate dehydrogenase) in bovine heart submitochondrial particles | atpenin A5, an inhibitor that binds in the complex II ubiquinone-binding site, has an IC50 | malonate, an inhibitor that binds in the complex II flavin site, has an IC50

[2] = molecular target: FumC (fumarate hydratase) (Escherichia coli, UniProt P05042); conditions: pH 7.4, 32 °C, 10 mM Tris-SO4, 2 mM MgSO4, 1 mM K2SO4, 2 mM NADP+, 300 μg/ml MaeB; kcat apparently per tetramer
FumC (fumarate hydratase), sequence (P05042 whole entry): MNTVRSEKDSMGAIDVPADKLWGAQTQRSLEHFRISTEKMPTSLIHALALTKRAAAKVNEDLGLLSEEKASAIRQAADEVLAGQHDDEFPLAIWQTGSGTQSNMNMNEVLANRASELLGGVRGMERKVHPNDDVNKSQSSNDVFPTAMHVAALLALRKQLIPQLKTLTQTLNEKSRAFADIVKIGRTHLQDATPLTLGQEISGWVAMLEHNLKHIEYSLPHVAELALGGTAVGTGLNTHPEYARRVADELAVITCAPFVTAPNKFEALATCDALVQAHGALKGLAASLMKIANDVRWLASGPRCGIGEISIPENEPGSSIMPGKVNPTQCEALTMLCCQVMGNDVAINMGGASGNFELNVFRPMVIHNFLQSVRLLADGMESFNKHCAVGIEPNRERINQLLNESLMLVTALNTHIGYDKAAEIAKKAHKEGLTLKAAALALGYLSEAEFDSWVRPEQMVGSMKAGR

[3] = molecular target: T1, complex II (succinate:ubiquinone oxidoreductase, succinate dehydrogenase) in bovine heart submitochondrial particles; assay: coupled FumC-MaeB assay of succinate oxidation in SMPs, NADPH absorbance; format: biochemical; conditions: pH 7.4, 32 °C, 2 mM NADP+, 2 mM MgSO4, endogenous ubiquinone-10, turnover to O2, kcat uses a published complex II content
purified protein [4] = substrate: NC(=O)c1ccc[n+]([C@@H]2O[C@H](COP(=O)(O)OP(=O)(O)OC[C@H]3O[C@@H](n4cnc5c(N)ncnc54)[C@H](OP(=O)(O)O)[C@@H]3O)[C@@H](O)[C@H]2O)c1; assay: purified protein; conditions: 40 mM malate, pH 7.4, 32 °C, 10 mM Tris-SO4, 2 mM MgSO4, 1 mM K2SO4
purified protein [5] = substrate: O=C(O)C[C@H](O)C(=O)O; assay: purified protein; conditions: 4 mM NADP+, pH 7.4, 32 °C, 10 mM Tris-SO4, 2 mM MgSO4, 1 mM K2SO4, kcat apparently per octamer, malate stereo not given

Molecule: COc1[nH]c(=O)c(C(=O)[C@@H](C)C[C@H](C)[C@@H](Cl)CCl)c(O)c1OC [atpenin A5]
IC50 ([1]; ubiquinone-binding site, full respiratory chain turnover to O2): 0.0024 ± 0.0012 µM

Molecule: O=C(O)/C=C/C(=O)O [fumarate]
Km [2]: 64 ± 7.8 µM

B1: MaeB (oxaloacetate decarboxylating malic dehydrogenase) (Escherichia coli K-12) (protein)
chain: MDDQLKQSALDFHEFPVPGKIQVSPTKPLATQRDLALAYSPGVAAPCLEIEKDPLKAYKYTARGNLVAVISNGTAVLGLGNIGALAGKPVMEGKGVLFKKFAGIDVFDIEVDELDPDKFIEVVAALEPTFGGINLEDIKAPECFYIEQKLRERMNIPVFHDDQHGTAIISTAAILNGLRVVEKNISDVRMVVSGAGAAAIACMNLLVALGLQKHNIVVCDSKGVIYQGREPNMAETKAAYAVVDDGKRTLDDVIEGADIFLGCSGPKVLTQEMVKKMARAPMILALANPEPEILPPLAKEVRPDAIICTGRSDYPNQVNNVLCFPFIFRGALDVGATAINEEMKLAAVRAIAELAHAEQSEVVASAYGDQDLSFGPEYIIPKPFDPRLIVKIAPAVAKAAMESGVATRPIADFDVYIDKLTEFVYKTNLFMKPIFSQARKAPKRVVLPEGEEARVLHATQELVTLGLAKPILIGRPNVIEMRIQKLGLQIKAGVDFEIVNNESDPRFKEYWTEYFQIMKRRGVTQEQAQRALISNPTVIGAIMVQRGEADAMICGTVGDYHEHFSVVKNVFGYRDGVHTAGAMNALLLPSGNTFIADTYVNDEPDAEELAEITLMAAETVRRFGIEPRVALLSHSNFGSSDCPSSSKMRQALELVRERAPELMIDGEMHGDAALVEAIRNDRMPDSSLKGSANILVMPNMEAARISYNLLRVSSSEGVTVGPVLMGVAKPVHVLTPIASVRRIVNMVALAVVEAQTQPL
Km (purified protein [4]): 52 ± 2.6 µM | Km (purified protein [5]): 7300 ± 900 µM | kcat (purified protein [5]): 92 ± 0.93 s⁻¹

Results, then the molecule that gave them:

IC50 ([1]; flavin (succinate) site, read-out: IC50): 96 ± 1.3 µM
Molecule: O=C(O)CC(=O)O [malonate]

Km [3]: 410 ± 55 µM
Molecule: O=C(O)CCC(=O)O [succinate]

Source: article PMC3783901, “A spectrophotometric coupled enzyme assay to measure the activity of succinate dehydrogenase^” (Analytical Biochemistry, 2013)
